US11230579B2, “Method of treating BCL-2 over-expressing disorders using arts containing a BH3-like domain” (CARMEL-HAIFA UNIVERSITY ECONOMIC CORPORATION LTD., priority 2012, dated 2022)
Like-named read-outs stand apart in the source and are kept apart here. Residues, ends and D or L forms follow the SMILES beside them. *: point of attachment. Cbz = O=C(OCc1ccccc1)*

Legend:
solid tumors = settings: panel of pediatric tumors; cited from earlier work
Bcl-2 [1] = assay: IP with anti ARTS Ab after ABT-263 treatment with or without QVD: binding of ARTS to Bcl-2; format: cell-based, human; settings: in the presence of QVD
Experimental: Co immunoprecipitation was performed as previously described (Gottfried et al., 2004). Briefly, 10 μg of anti-ARTS antibody or 2 μg of anti-Bcl-2 or anti-XIAP antibody were added to the protein lysate and the samples were left rotating overnight at 4° C. On the following day, agarose beads conjugated to protein A/G (Santa Cruz) were added for 4 h. Samples were centrifuged at 4000 rpm, 4° C. for 5 min and washed three times with PBS. Proteins were eluted from beads following 5 min of boiling in sample buffer and separated on 12.5% SDS-PAGE gel, followed by Western blot analysis.
ABT is a known BH3 mimetics antagonist of Bcl-2 that binds the hydrophobic binding groove in Bcl-2 that includes the BH3 domain. […] Addition of QVD was done to examine whether the binding of ARTS to Bcl-2 occurs before initiation of caspase activation. An IP assay using monoclonal mouse anti ARTS Ab followed by Western Blot was performed by using Bcl-2, ARTS and Actin antibodies.

HeLa cells = assay: Induction of apoptosis by ABT-263 (C-PARP, C-Casp3 Western blot); format: cell-based, human
Experimental: (§1) ABT-263 is a Bcl-2 antagonist targeting the BH3 domain and leading to initiation of apoptosis within two hours after treatment. The effect of ABT-263 was studied in HeLa cells and HeLa cells in which ARTS expression was knocked-down using shRNA method (HeLa KD ARTS). HeLa and HeLa KD ARTS cells were treated with different concentrations of ABT-263 at different incubation time points (0, 16 and 24 Hours). Lysates were separated using SDS-PAGE method. To evaluate apoptosis, Western Blot analysis was performed using antibodies recognizing Cleaved-PARP (C-PARP), Cleaved-casp3 (C-Casp3), Bcl-2, ARTS, XIAP and Actin (FIG. 8A).

HeLa KD ARTS cells = assay: Induction of apoptosis by ABT-263 in ARTS knocked-down cells; format: cell-based, human; settings: ARTS KD HeLa cells (absence of ARTS)
Experimental: as §1

[2] = tested on: acute lymphocytic leukemia; settings: panel of pediatric tumors; cited from earlier work
[3] = tested on: small cell lung cancer xenographs, acute lymphoblastic leukemia and hematologic tumors; settings: cited from earlier work
Bcl-XL = Bcl-XL (Homo sapiens, UniProt Q07817); settings: cited from earlier work
Bcl-2 [4] = settings: cited from earlier work
Bcl-W = target: T1, Bcl-W (Homo sapiens, UniProt Q92843); settings: cited from earlier work
T1 sequence (Q92843 1-193): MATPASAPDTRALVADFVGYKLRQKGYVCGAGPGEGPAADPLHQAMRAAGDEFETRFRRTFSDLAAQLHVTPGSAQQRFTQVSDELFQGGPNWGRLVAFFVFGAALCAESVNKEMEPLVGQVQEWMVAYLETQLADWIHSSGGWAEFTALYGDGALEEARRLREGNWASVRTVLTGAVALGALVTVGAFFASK

[5] = tested on: tumor types with an over expression of Mcl-1; settings: cited from earlier work
Bcl-2 [6] = settings: different cell lines and mouse embryonic fibroblasts (MEFs), Western blot
Bcl-2 [7] = assay: Myc beads pull-down of ARTS and Bcl-2 in co-transfected COS-7 cells; format: binding; settings: COS-7 cells co-transfected with Bcl-2 and ARTS
Experimental: COS-7 cells were co-transfected with different constructs as detailed herein. The cells were lysed in RIPA buffer (150 mM NaCl, 50 mM Tris-HCl (pH 8), 1% NP-40, 0.5% deoxycholate acid containing protease inhibitors (mini Complete, Roche)). The samples were left rotating overnight at 4° C. with the anti-Myc-beads (Santa Cruz). Samples were centrifuged at 4000 rpm, 4° C. for 5 min and washed four times in PBS. Proteins were eluted from beads following 5 min of boiling in sample buffer. Proteins were separate on 12.5% SDS-PAGE gel, followed by Western blot analysis.
The mechanism by which ARTS regulates Bcl-2 levels was further tested using a pull-down assay in COS-7 cells which were co-transfected with Bcl-2 and ARTS expression vectors. Pull-down assays were performed using agarose anti-myc beads followed by Western blot analysis using mouse anti-ARTS and anti-Bcl-2 antibodies.

Bcl-2 [8] = assay: Over-expression of ARTS in COS-7 cells, Bcl-2 levels by Western blot and densitometry; format: cell-based; settings: COS-7 cells transfected with Bcl-2 or Bcl-2 and ARTS, 16 h
Text: For transient transfections jetPEI™ (Polyplus Transfection) and Transfectol (GeneChoice) reagents were used according to the manufacturers' instructions.
To determine whether ARTS promotes apoptosis by regulating the levels of Bcl-2, the inventors first over-expressed ARTS in COS-7 cells. More specifically, COS-7 cell were transiently transfected with ARTS, Bcl-2 or empty vector or co-transfected with both constructs.

Bcl-2 [9] = assay: Proteasome inhibition in transfected COS-7 cells, Bcl-2 levels; format: cell-based; settings: COS-7 cells transfected with Bcl-2 or Bcl-2 and ARTS, 6 h
Experimental: For the proteasome inhibition studies the cells were incubated with MG132 (20 μM) for 6 hours.
COS-7 cells transiently transfected with Bcl-2 or co-transfected with Bcl-2 and ARTS constructs were incubated with a potent proteasome inhibitor MG132 for 6 h to evaluate the effect of the ubiquitin-proteasome system (UPS) on Bcl-2 degradation.

Bcl-2 [10] = assay: Functional-structural pull-down assay with anti Bcl2 antibody in transfected HeLa cells; format: binding, human; settings: pull-down with Bcl-2 antibodies
Experimental: HeLa cells were transiently transfected with Full length ARTS plasmid and 128 amino acids N′ terminus deletion of ARTS plasmid, for 24 hrs. The cells were extracted using RIPA-SDS lysis buffer. Immunoprecipitation was done by incubation of lysates overnight with anti Bcl2 antibody (BD), followed by precipitation done with protein A/G beads (Santa Cruz). Western blot analysis was performed using monoclonal anti ARTS antibody directed against its unique C terminus (Sigma).
In order to identify the Bcl-2 binding domain in ARTS, the inventors examined whether deletion of different fragments of ARTS, namely, the N-terminal 128 amino-acid residues may have an effect. Therefore, pull-down experiments were performed in HeLa cells transfected with either the full length ARTS or a deletion mutant thereof.

Chain of Bcl-XL (Q07817 whole entry): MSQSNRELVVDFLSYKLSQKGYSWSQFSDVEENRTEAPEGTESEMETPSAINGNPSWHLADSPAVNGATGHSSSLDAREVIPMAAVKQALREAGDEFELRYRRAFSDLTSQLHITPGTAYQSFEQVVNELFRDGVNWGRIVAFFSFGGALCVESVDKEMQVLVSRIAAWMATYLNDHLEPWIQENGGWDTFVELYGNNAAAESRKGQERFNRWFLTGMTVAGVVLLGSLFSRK

CC1(C)CCC(c2ccc(Cl)cc2)=C(CN2CCN(c3ccc(C(=O)NS(=O)(=O)c4ccc(N[C@H](CCN5CCOCC5)CSc5ccccc5)c(S(=O)(=O)C(F)(F)F)c4)cc3)CC2)C1 [ABT-263, 4-[4-[[2-(4-Chlorophenyl)-5,5-dimethyl-1-cyclohexen-1-yl]methyl]-1-piperazinyl]-N-[[4-[[(1R)-3-(4-morpholinyl)-1-[(phenylthio)methyl]propyl]amino]-3-[(trifluoromethyl)sulfonyl]phenyl]sulfonyl]benzamide]
efficacy as a single agent against solid tumors (solid tumors): not effective
binding of ARTS to Bcl-2 after treatment (Bcl-2 [1]; 25 μM, 3 and 24 hours): significant increase in binding of ARTS to Bcl-2
inhibition of the binding of ARTS to Bcl-2 (Bcl-2 [1]): fails to inhibit
apoptosis (level of C-PARP and C-Casp3) with increased concentrations (HeLa cells): increased apoptosis
apoptosis (HeLa cells; 25 μM for 24H): induction of apoptosis
concentration giving optimal induction of apoptosis (HeLa cells; 24 h): 25 µM
apoptosis (C-PARP and C-Casp3 levels) (HeLa KD ARTS cells): not able to induce apoptosis
apoptosis (C-PARP and C-Casp3 levels) (HeLa KD ARTS cells; listed as ABT): lower apoptosis rates
efficacy against acute lymphocytic leukemia [2]: highly significant
efficacy against tumors [3]: effective
binding to Bcl-XL (Bcl-XL): high affinity
binding to Bcl-2 (Bcl-2 [4]): high affinity
binding to Bcl-W (Bcl-W): high affinity

CN(C)CC[C@H](CSc1ccccc1)Nc1ccc(S(=O)(=O)NC(=O)c2ccc(N3CCN(Cc4ccccc4-c4ccc(Cl)cc4)CC3)cc2)cc1[N+](=O)[O-] [ABT-737, (R)-4-(4-((4′-chloro-[1,1′-biphenyl]-2-yl)methyl)piperazin-1-yl)-N-((4-((4-(dimethylamino)-1-(phenylthio)butan-2-yl)amino)-3-nitrophenyl)sulfonyl)benzamide]
effect in tumor types with an over expression of Mcl-1 [5]: no effect
binding to Bcl-XL (Bcl-XL): high affinity
binding to Bcl-2 (Bcl-2 [4]): high affinity
binding to Bcl-W (Bcl-W): high affinity

COc1cc([C@@H]2c3cc4c(cc3[C@@H](O[C@@H]3O[C@@H]5CO[C@@H](C)O[C@H]5[C@H](O)[C@H]3O)[C@H]3COC(=O)[C@H]23)OCO4)cc(OC)c1O [Etoposide]
Bcl-2 levels upon induction of apoptosis (Bcl-2 [6]): down regulated
fate of ARTS/Bcl-2 complex upon induction of apoptosis (Bcl-2 [7]): degraded
Bcl-2 level on treatment (Bcl-2 [8]): further reduction of Bcl-2 level

CC(C)C[C@@H](C=O)NC(=O)[C@H](CC(C)C)NC(=O)[C@H](CC(C)C)NC(=O)OCc1ccccc1 [MG132] (Cbz-Leu-Leu-Leu-aldehyde)
Bcl-2 levels during proteasome inactivation (Bcl-2 [9]): accumulation of Bcl-2 levels

B1: 128aa N′del ARTS: deletion mutant of ARTS lacking the N′ terminal 128 amino acid residues (protein)
chain: MVAGESGLGKSTLVNSLFLTDLYRDRKLLGAEERIMQTVEITKHAVDIEEKGVRLRLTIVDTPGFGDAVNNTECWKPVAEYIDQQFEQYFRDESGLNRKNIQDNRVHCCLYFISPFGHGYGPSLRLLAPPGAVKGTGQEHQGQGCH
binding to Bcl-2 (Bcl-2 [10]): does not bind to Bcl-2
